From patent publication US20150018566A1, “TUBULIN BINDING AGENTS” (priority 2011, published 2015)
Where two headings read alike, the source gives them in different places. Blank lines part the entries; values can stand above or below the compound they belong to.

Tests used:
tubulin = target: T1, tubulin (Sus scrofa, UniProt P02550+P02554); experiment: Tubulin assembly assay (tubulin binding); assay type: biochemical, porcine
T1 construct: The procedure used is modified from Shelanski et al; from tissue

HUVECs [1] = experiment: Cell cycle analysis, G2/M phase, PI staining and flow cytometry; assay type: cell-based, human; conditions: 24 h treatment
Excerpt: Proliferating cells are constantly dividing to produce daughter cells. The most obvious cellular structure that requires duplication and division is the cell nucleus where DNA, cell's genetic material is present. During a cell cycle there are changes in the DNA content and thus there are different cycle stages including G0, G1, S, G2 and M (mitosis). The G0 stage of the cycle is a subset of G1 where the cells are quiescent and have limited cellular functions. Cells remain in the G1 portion of the cycle when are not in a process of cell division and thus G1 phase is the most predominant phase of the cycle appearing as the largest peak. In addition, during the G1 phase synthesis of many RNA and protein molecules is taking place which are necessary for DNA synthesis. G2 phase is a period for repair of any damaged DNA and for reorganisation of the DNA structure before entering the M phase. Cell cycle abnormalities could be a sign of cell damage, for example DNA damage causes interruption of the cell cycle at certain checkpoints such as the spindle assembly checkpoint (SAC) to prevent carcinogenesis.
The mitotic spindle is composed of microtubules which together with regulatory proteins assist in the activity of properly segregating replicated chromosomes. It is well established that treatment of cells with tubulin polymerization inhibitors causes a G2/M phase arrest of the cell cycle and thus an observable increased DNA content at that stage.
For this reason, cell cycle analysis was carried out using propidium iodide (PI) staining. The first protocol was presented by Krishan in 1975 [6]. The first step involves permeabilisation of the cells' plasma membrane by fixating the cells in ethanol in order for the fluorescent DNA dye to pass through the membrane and into the cells. Ribonuclease A (RNase A) was used to eliminate any RNA present inside the cells in order to avoid creating artefacts that could affect the results. PI was used for the staining of the cells' DNA content; however other fluorescent dyes can be used instead, such as DAPI and Hoechst 33342.
Flow cytometry was used to quantify the DNA contents of the cells. This is a technique which was first introduced by Fulwyler which examines and counts cells or other microscopic particles by suspending them in a stream of fluid and passing them by an electronic detection apparatus. Cells had to pass through the flow cytometer's laser where a fluorescence pulse was generated and it correlated with the amount of DNA dye present inside the cells. […]
Cell cycle arrest at the G2/M phase was examined by PI-staining. […] Cell suspension was kept at 4° C. until ready for analysis. […] Samples were analyzed using a Beckman Coulter (Dako) 2-laser CyAn ADP analyser provided by the Department of Biochemistry, TCD. […]

[2] = target: T2, APN enzyme present on HUVECs (Homo sapiens, UniProt P15144); experiment: APN cell-based assay, HUVECs
T2 construct: The presence of APN-expres sing cells replaced the step of the addition of the actual APN enzyme; host or cells: HUVECs
Experimental: (§1) To further investigate the APN inhibitory effect of the hybrids the APN cell-based assay was carried out as previously described using both HUVECs and PC-3 cells. In order to exclude any possible cytotoxic effects of the tubulin component of the hybrids that could interfere with the outcome of the results, it was necessary to perform cytotoxicity assays. For this purpose, the MTT assay was used as previously described; however the duration of compounds' incubation was modified to 2 h in order to correlate with the incubation period of APN cell-based assay. The presence of APN-expres sing cells replaced the step of the addition of the actual APN enzyme and the rest of the protocol remained the same. The release of the resulting product p-nitroaniline was measured spectrophotometrically at 405 nm and the level of APN present […] the cells was directly related to the intensity of the colour absorbance.
(§2) HUVECs/PC-3 cells' surface APN activity was estimated spectrophotometrically using L-leucine-p-nitroanilide as an APN substrate. 1×10^6 cells/ml ([…]) were seeded in 96-well plate and incubated overnight at 37° C. The following day cell medium was replaced by various concentrations of compounds diluted in HEPES buffer (100 μl). […] L-leucine-p-nitroanilide (50 μl) was added to each well to give a final concentration of 2 mM. Following 2 h incubation at 37° C., absorbance was measured at 405 nm using a FLUOstar OPTIMA microplate reader (BMG labtech). Each compound concentration was tested in quadruplicate and each experiment was performed at three independent times. The percentage APN inhibition was determined using the formula below and where appropriate, IC50 values were obtained.
(§3) % APN inhibition=100−[(mean Abs of test compound)/(mean Abs of control)]*100

[3] = target: T3, APN enzyme present on PC-3 cells (Homo sapiens, UniProt P15144); experiment: APN cell-based assay, PC-3 cells
T3 construct: PC-3 cell line was selected due to its high expression of APN; host or cells: PC-3
Experimental: as §1, §2, §3

HUVECs [4] = experiment: MTT cytotoxicity assay, HUVECs; assay type: cell-based, human
Experimental: as §1
Cell growth inhibition was assessed using the MTT assay. 5×10^4 cells/ml HUVECs or PC-3 cells (180 μl) were inoculated into each well of a 96-well plate and incubated overnight at 37° C. Compounds or control solutions (20 μl) were added into each well and the plates were incubated for 72 h. CA-4 was used as a positive control. […] The percentage growth inhibition was determined using the formula below and the results were expressed in terms of IC50 values.

[5] = HUVEC, read-out: percentage APN inhibition

T3 sequence (P15144 whole entry): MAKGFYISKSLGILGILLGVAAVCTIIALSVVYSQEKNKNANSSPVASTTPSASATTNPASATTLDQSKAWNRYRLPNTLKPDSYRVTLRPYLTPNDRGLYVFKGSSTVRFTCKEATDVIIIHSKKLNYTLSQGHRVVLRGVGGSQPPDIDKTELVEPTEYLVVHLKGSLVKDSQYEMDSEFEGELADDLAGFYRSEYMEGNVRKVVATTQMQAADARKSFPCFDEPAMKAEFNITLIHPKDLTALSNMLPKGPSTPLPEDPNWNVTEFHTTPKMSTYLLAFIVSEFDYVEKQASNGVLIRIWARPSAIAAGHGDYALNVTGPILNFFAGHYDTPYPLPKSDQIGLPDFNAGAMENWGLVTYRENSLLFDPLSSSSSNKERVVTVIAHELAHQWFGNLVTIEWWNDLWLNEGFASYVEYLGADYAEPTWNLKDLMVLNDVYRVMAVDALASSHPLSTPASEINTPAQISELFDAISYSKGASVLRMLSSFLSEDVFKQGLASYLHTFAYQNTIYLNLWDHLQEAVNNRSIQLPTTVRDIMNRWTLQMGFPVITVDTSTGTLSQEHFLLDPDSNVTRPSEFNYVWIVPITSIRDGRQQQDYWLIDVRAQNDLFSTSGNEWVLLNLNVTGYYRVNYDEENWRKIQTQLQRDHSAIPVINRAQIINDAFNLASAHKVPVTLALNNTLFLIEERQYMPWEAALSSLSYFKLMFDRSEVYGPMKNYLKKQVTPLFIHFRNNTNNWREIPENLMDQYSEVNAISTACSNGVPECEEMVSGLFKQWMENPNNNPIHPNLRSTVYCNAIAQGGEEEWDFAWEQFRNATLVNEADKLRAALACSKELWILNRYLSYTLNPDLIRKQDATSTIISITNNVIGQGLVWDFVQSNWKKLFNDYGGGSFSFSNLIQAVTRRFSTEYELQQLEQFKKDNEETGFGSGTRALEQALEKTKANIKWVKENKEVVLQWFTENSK
T2 sequence (P15144 whole entry): as above
T1 sequence (P02550 whole entry): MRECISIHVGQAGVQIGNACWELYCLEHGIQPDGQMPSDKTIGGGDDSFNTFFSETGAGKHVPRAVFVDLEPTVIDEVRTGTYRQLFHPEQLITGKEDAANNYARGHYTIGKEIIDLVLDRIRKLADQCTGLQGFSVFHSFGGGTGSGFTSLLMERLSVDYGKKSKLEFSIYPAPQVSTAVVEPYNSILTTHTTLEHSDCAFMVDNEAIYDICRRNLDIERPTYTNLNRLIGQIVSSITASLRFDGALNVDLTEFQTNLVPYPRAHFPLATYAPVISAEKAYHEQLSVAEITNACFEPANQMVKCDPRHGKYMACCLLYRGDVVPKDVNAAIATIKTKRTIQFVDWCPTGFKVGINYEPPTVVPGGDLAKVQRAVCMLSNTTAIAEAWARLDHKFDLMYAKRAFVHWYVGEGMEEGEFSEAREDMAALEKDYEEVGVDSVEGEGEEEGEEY
T1 sequence (P02554 whole entry): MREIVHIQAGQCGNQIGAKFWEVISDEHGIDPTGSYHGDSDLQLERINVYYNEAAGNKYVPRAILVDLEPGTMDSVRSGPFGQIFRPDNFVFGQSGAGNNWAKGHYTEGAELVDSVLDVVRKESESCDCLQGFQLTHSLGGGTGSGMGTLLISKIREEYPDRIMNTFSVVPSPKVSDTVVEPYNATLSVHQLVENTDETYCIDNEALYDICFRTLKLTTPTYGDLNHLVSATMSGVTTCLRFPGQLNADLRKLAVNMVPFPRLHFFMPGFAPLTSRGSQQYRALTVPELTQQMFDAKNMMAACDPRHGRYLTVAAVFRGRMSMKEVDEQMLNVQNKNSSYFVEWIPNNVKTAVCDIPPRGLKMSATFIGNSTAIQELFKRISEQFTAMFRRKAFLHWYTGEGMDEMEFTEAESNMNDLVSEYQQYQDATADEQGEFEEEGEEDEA

Compound: COc1ccc(C2=CC(=O)CCc3c2cc(OC)c(OC)c3OC)cc1O [Compound 1, (Z)-8,9-dihydro-5-(3-hydroxy-4-methoxyphenyl)-1,2,3-trimethoxybenzo[7]annulen-7-one]
- IC50 (tubulin): 1.05 µM
- percentage of cells in the G2/M phase (HUVECs [1]; 0.5 μM): 86.3±2.3%
- percentage of cells in the G2/M phase (HUVECs [1]; 1 μM): 79.35±1.7%

Compound: COc1ccc(C2=CC(=O)CCc3c2cc(OC)c(OC)c3OC)cc1N [Compound 28, 2-methoxy-5-(2,3,4-trimethoxy-7-oxo-6,7-dihydro-5H-benzo[7]annulen-9-yl)benzenaminium chloride]
- percentage of cells in the G2/M phase (HUVECs [1]; 0.5 μM): 81.25±0.6%
- percentage of cells in the G2/M phase (HUVECs [1]; 1 μM): 76.07±4.82%

Compound: COc1ccc(C2=CC(=O)CCc3c2cc(OC)c(OC)c3OC)cc1OC(=O)C(CC(C)C)NC(=O)C(O)C(N)Cc1ccccc1.Cl (centres unmarked) [Compound 44]
- inhibition at 0.1 µM [2, 5]: 31.9 ± 19%
- inhibition at 1 µM [2, 5]: 52.6 ± 14.7%
- inhibition at 5 µM [2, 5]: 64 ± 16.1%
- percentage APN inhibition ([3]; 1 μM, PC-3 cells, 2 h incubation): 31.3±8.9%
- percentage APN inhibition ([3]; 5 μM, PC-3 cells, 2 h incubation): 51.7±8.5%
- percentage APN inhibition ([3]; 10 μM, PC-3 cells, 2 h incubation): 55.7±9.8%
- percentage APN inhibition ([3]; 20 μM, PC-3 cells, 2 h incubation): 71.4±7.5%
- inhibition at 1 µM ([3]; PC-3, read-out: percentage APN inhibition, 1 μM, PC-3 cells, 2 h incubation): 27.8 ± 2.1%
- inhibition at 5 µM ([3]; PC-3, read-out: percentage APN inhibition, 5 μM, PC-3 cells, 2 h incubation): 44.6 ± 7.3%
- inhibition at 10 µM ([3]; PC-3, read-out: percentage APN inhibition, 10 μM, PC-3 cells, 2 h incubation): 63.7 ± 7.68%
- inhibition at 20 µM ([3]; PC-3, read-out: percentage APN inhibition, 20 μM, PC-3 cells, 2 h incubation): 53.4 ± 16.1%
- APN inhibition relative to bestatin ([3]; PC-3 cells): 2 fold

- inhibition at 0.1 µM ([2]; HUVEC, 0.1 μM, HUVECs, 2 h incubation, read-out: percentage APN inhibition): 18.1 ± 2.9%
- inhibition at 0.5 µM ([2]; HUVEC, 0.5 μM, HUVECs, 2 h incubation, read-out: percentage APN inhibition): 21.6 ± 2.2%
- APN inhibition relative to bestatin ([2]; HUVECs): superior activity to that of bestatin
- inhibition at 1 µM ([3]; 1 μM, PC-3 cells, 2 h incubation, read-out: percentage APN inhibition): 47.9 ± 1.23%
- inhibition at 5 µM ([3]; 5 μM, PC-3 cells, 2 h incubation, read-out: percentage APN inhibition): 51.7 ± 1.38%
- inhibition at 10 µM ([3]; 10 μM, PC-3 cells, 2 h incubation, read-out: percentage APN inhibition): 51.9 ± 3.89%
- inhibition at 20 µM ([3]; 20 μM, PC-3 cells, 2 h incubation, read-out: percentage APN inhibition): 56.5 ± 3.13%
Compound: COc1ccc(C2=CC(=O)COc3c2cc(OC)c(OC)c3OC)cc1OC(=O)C(CC(C)C)NC(=O)C(O)C(N)Cc1ccccc1.Cl (centres unmarked) [Compound 45, 2-methoxy-5-(7,8,9-trimethoxy-3-oxo-2H-1-benzoxepin-5-yl)phenyl 2-(3-amino-2-hydroxy-4-phenylbutanamido)-4-methylpentanoate]
- APN inhibition relative to bestatin ([3]; PC-3 cells): significantly more potent APN inhibitor than bestatin
- cytotoxic effect on HUVECs (HUVECs [4]): potent cytotoxic effect
